Measured values: patent publication US5252575A, “Antiviral purine derivatives with improved gastrointestinal absorption” (Beecham Group p.l.c., priority 1992, dated 1993)
Like-named read-outs stand apart in the source and are kept apart here.

What was measured:
[1] = Concentrations of BRL44385 and its prodrugs detected in the blood of mice after oral administration (Table 1); type: in vivo, female Balb/c mice; settings: mouse, 200 umol/kg, total 9-alkoxypurines, 0.2 mmol/kg oral gavage
Method: |Concentrations of BRL44385 and its Prodrugs Detected in the |Blood of Mice after Oral Administration of |9-(Alkoxymethoxypropoxy)purines^a | ^a Compounds were administered as single doses of 0.2 mmol/kg in 0.1 | ml of 1% (carboxymethyl)cellulose by oral gavage to female Balb/c mice | weighing approximately 20 g. Food was withheld for 18 h prior to the star | of the experiment. Blood was collected by cardiac puncture using | heparinised syringes 15, 60 and 180 min after dosing. Equal volumes (0.2 | ml) from three mice were pooled at each time point and 0.6 ml of 16% | trichloroacetic acid was added. After centrifugation, 0.5 ml of | supernatent was added to 0.1 ml of saturated aqueous NaHCO3 followed | by the addition of 0.6 ml of 0.4M NH4 OAc (pH 6.0) and the mixture | analysed by HPLC. | ^b 9-Alkoxypurine concentrations <2 μM were detected in the blood | 180 min after dosing.

[2] = Further evaluation of BRL55792 as oral prodrug of BRL44385: AUC in blood of squirrel monkeys (Table 2); type: in vivo; settings: 110 umol/kg, squirrel monkey, single oral dose 0.11 mmol/kg, 0-8 h, 3 animals
Method: |Further evaluation of BRL55792 as a potential oral prodrug of BRL44385 in |rats and squirrel monkeys | ^a Compounds were administered as a single oral dose at either 0.2 | mmol/kg (equivalent to 44.5 mg/kg free BRL44385) to rats with an | indwelling aortic cannula or 0.11 mmol/kg (equivalent to 25 mg/kg free | BRL44385) to squirrel monkeys. Sequential blood samples were collected up | to 8 h after compound administration. Following treatment as described in | table 1, the samples were assayed for BRL55792, BRL44385 and intermediate | matabolites. | ^b Mean areaunder-the-curve values were calculated from blood | concentrationtime profiles from 3 animals by the trapezoidal rule (0-6 h | for rats and 0-8 h for squirrel monkeys). | ^c AUC of BRL44385 from prodrug/AUC of BRL44385 from oral BRL44385

Nc1nc(O)c2ncn(OCCCO)c2n1 [Example E1, 9-(3-hydroxyprop-1-oxy)guanine]
concentration at 0.25 h ([1]; 15 min, read-out: Concn in blood at time (min) after dosing: total 9-alkoxypurines, 15): 8.9 µM
concentration at 1 h ([1]; 60 min, read-out: Concn in blood at time (min) after dosing: total 9-alkoxypurines, 60): 4 µM
AUC at 8 h ([2]; analyte BRL44385, read-out: Mean Area-under-the-curve ± SEM for BRL 44385): 13 ± 2.4 µM·h

CC(C)OCOCCCOn1cnc2cnc(N)nc21 [Example 1, 2-Amino-9-[3-(isopropoxymethoxy)propoxy)purine]
AUC at 8 h ([2]; analyte BRL55792, read-out: Mean Area-under-the-curve ± SEM for BRL 55792): 13 ± 5.7 µM·h
